Reference: patent publication US4845079A, “Peptidylaminodiols” (priority 1988, dated 1989)
Where a name gives a salt, the structure may show the parent alone.

Target: T1, human renal renin (Homo sapiens, UniProt P00797)
T1 construct: with human renal renin, free from acid proteolytic activity; from tissue; host or cells: human kidney (concluded from the word 'renal')
T1 sequence (P00797 67-406): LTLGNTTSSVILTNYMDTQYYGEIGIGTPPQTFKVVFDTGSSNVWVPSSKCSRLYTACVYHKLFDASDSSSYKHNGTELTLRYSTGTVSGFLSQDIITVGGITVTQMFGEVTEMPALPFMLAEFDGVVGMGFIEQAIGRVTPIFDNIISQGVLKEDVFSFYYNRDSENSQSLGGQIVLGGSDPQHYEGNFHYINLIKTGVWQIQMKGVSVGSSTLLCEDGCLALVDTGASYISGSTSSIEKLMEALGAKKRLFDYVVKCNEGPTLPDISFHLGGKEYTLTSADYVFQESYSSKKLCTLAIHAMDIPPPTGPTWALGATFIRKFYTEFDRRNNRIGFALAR
Experiment: in vitro inhibition of human renal renin (angiotensin I formed measured by radioimmunoassay)
Format: biochemical
Conditions: human renal renin with renin substrate (human angiotensinogen), 37° C., pH 6.0

| Compound | IC50 [nM] |
| --- | --- |
| C[C@H](NC(=O)[C@H](Cc1ccccc1)NC(=O)OC(C)(C)C)C(=O)N[C@@H](CC1CCCCC1)C(O)CO (stereo partly drawn) [Example 3, Boc-Phe-Ala Amide of 3(S)-Amino-4-cyclohexyl-1,2(R,S)-dihydroxybutane] | 4000 |
| CCOC(=O)N[C@@H](Cc1ccccc1)C(=O)N(C)[C@@H](Cc1c[nH]cn1)C(=O)N[C@@H](CC1CCCCC1)[C@@H](O)[C@@H](O)CC(C)C [Example 39, Ethoxycarbonyl-Phe-MeHis Amide of 2(S)-Amino-1-cyclohexyl-3(R),4(S)-dihydroxy-6-methylheptane] | 2 |
| CC(C)C[C@H](O)[C@H](O)[C@H](CC1CCCCC1)NC(=O)[C@H](Cc1cnc[nH]1)NC(=O)[C@H](Cc1ccccc1)NC(=O)C(C)(C)CNC(=O)OCc1ccccc1 [Example 81] | 0.6 |
| CC(C)C[C@H](O)[C@H](O)[C@H](CC1CCCCC1)NC(=O)[C@H](Cc1c[nH]cn1)NC(=O)[C@H](Cc1ccccc1)NC(=O)C(C)(C)CN [Example 82, [(α, α-Di-Me)-β-Ala]-Phe-His Amide of 2(S)-Amino-1-cyclohexyl-3(R),4(S)-dihydroxy-6-methylheptane Bis acetic acid salt] | 0.6 |
